Measurements: patent publication US10696689B2, “Somatostatin modulators and uses thereof” (CRINETICS PHARMACEUTICALS, INC., priority 2018, dated 2020)
pEC50: −log10 of the molar value.

Columns and labels:
[1] = target: human SST2 receptor (SSTR2) (Homo sapiens (Human), UniProt P30874); test: cAMP assay: inhibition of cAMP via human SST2 receptor in CHO-K1 cells; format: cell-based; conditions: CHO-K1 cells stably expressing human SSTR2, NKH477 stimulated
Description: (§1) General overview: All five SSTR subtypes are Gi coupled G-protein coupled receptors (GPCRs) that lead to decreases in intracellular cyclic AMP (cAMP) when activated by an agonist. Therefore, measurement of intracellular cAMP levels can be used to assess whether compounds of the invention are agonists of SSTR subtypes (John Kelly, Troy Stevens, W. Joseph Thompson, and Roland Seifert, Current Protocols in Pharmacology, 2005, 2.2.1-2.2). One example of an intracellular cAMP assay is described below.
(§2) Four days prior to the assay, 5,000 Chinese hamster ovary cells (CHO-K1, ATCC # CCL-61) stably expressing the human somatostatin receptor subtype 2 are plated in each well of a 96-well tissue culture-treated plate in Ham's F12 growth media (ThermoFisher #10-080-CM) supplemented with 10% donor bovine serum (Gemini Bio-Products #100-506), 100 U/mL penicillin; 100 ug/mL streptomycin; 2 mM L-glutamine (Gemini Bio-Products #400-110) and 0.2 mg/mL hygromycin B (GoldBio #31282-04-9). The cells are cultured at 37° C., 5% CO2 and 95% humidity. On the day of the assay, the media is aspirated and the cells are treated with 50 μL of 1.6 μM NKH477 (Sigma # N3290) plus various dilutions of compounds of the invention in assay buffer [1× Hank's Balanced Salt Solution (ThermoFisher # SH3058802), 0.5 mM HEPES pH 7.4, 0.1% bovine serum albumin, 0.2 mM 3-Isobutyl-1-methylxanthine (IBMX, VWR #200002-790)]. The cells are incubated for 20 minutes at 37° C. (the final concentration of the compounds of the invention are typically 0-10,000 nM). The cells are treated with 50 μL of lysis buffer (HRTF cAMP kit, Cisbio). The lysate is transferred to 384-well plates and cAMP detection and visualization antibodies are added and incubated for 1-24 hours at room temperature. The time-resolved fluorescent signal is read with a Tecan M1000Pro multiplate reader. The intracellular cAMP concentrations are calculated by regression to a standard curve and are plotted vs. the concentration of the compounds of the invention and the EC50 of the compounds are calculated using standard methods. All data manipulations are in GraphPad Prism v6.

[2] = tested on: hSSTR2 vs. hSSTR4; test: Selectivity for inhibition of cAMP via hSSTR2 vs. hSSTR4; format: cell-based, human; conditions: Table C
Description: as §1, §2

[3] = Liver microsomal stability assay; format: in vitro ADME; conditions: human liver microsomes 0.5 mg/mL, 1 μM compound, 37° C.
Protocol: The in vitro stabilities of compounds of interest were determined for various species using pooled male and female human, pooled male Sprague-Dawley rat, pooled male Cynomolgus monkey, and pooled male Beagle dog liver microsomes at microsomal protein concentrations of 0.5 mg/mL. Incubations were carried out in a potassium phosphate buffer (50 mM). The NADPH-generating system was composed of NADP+ (1 mM), magnesium chloride (3 mM), EDTA (1 mM), glucose-6-phosphate (5 mM) and glucose-6-phosphate dehydrogenase (1 Unit/mL) for all experiments. Compounds of interest in DMSO were added to achieve a final incubation concentration of 1 μM (final DMSO content was 0.1% v/v and final acetonitrile content was 0.9%). The final incubation volume was 400 μL. Incubations were conducted at 37° C. for 0, 5, 10, 20, 40 and 60 minutes in a shaking water bath and terminated by removing 50 μL of incubation mixture and adding to 100 μL of ice cold acetonitrile containing internal standard. Following precipitation by centrifugation at 3500 rpm and 4° C. for 30 minutes, compounds of interest and internal standard were analyzed in the resultant supernatant using a multiple reaction monitoring (MRM) LC-MS/MS method. MS conditions were optimized for each analyte.
The following Table (Table D) illustrates human liver microsomal stability of exemplary compounds.

human SST2 receptor (SSTR2), sequence (P30874 whole entry): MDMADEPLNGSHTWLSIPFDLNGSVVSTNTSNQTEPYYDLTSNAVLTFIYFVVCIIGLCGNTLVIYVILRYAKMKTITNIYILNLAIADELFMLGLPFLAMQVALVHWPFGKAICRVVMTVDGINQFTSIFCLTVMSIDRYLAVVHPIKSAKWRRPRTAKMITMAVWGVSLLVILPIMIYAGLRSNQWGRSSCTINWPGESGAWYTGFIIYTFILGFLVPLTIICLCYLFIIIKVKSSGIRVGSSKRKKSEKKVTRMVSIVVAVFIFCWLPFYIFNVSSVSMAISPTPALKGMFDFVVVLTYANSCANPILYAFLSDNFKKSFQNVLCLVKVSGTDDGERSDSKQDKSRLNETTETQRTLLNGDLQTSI

| Compound | pEC50 [1] | hSST4/hSST2 (ratio) [2] | HLM t1/2 [3] [h] |
| --- | --- | --- | --- |
| COc1cc(C#N)cc2[nH]c(-c3c(N)ncc(-c4cc(F)cc(F)c4)c3N3CC[C@@H]4NCCO[C@H]4C3)nc12 [Compound 3-18, 2-{4-[(4αS,8αS)-octahydro-1H-pyrido[3,4-b][1,4]oxazin-6-yl]-2-amino-5-(3,5-difluorophenyl)pyridin-3-yl}-4-methoxy-1H-1,3-benzodiazole-6-carbonitrile] | 9.00 to 10.00 | b (b = bewteen 15 and 50;) | 1.65 |
| Nc1ncc(-c2cccc(F)c2)c(N2CC[C@@H]3NCCO[C@H]3C2)c1-c1nc2c(F)cc(F)cc2[nH]1 [Compound 3-3, 4-[(4αS,8αS)-octahydro-1H-pyrido[3,4-b][1,4]oxazin-6-yl]-3-(4,6-difluoro-1H-1,3-benzodiazol-2-yl)-5-(3-fluorophenyl)pyridin-2-amine] | 9.00 to 10.00 | c (c = between 2.5 and 15;) | 3.85 |
| N#Cc1cc(F)c2nc(-c3c(N)ncc(-c4cc(F)cc(F)c4)c3N3CC[C@@H]4OCCN[C@H]4C3)[nH]c2c1 [Compound 3-19, 2-{4-[(4αS,8αS)-octahydro-1H-pyrido[3,4-b][1,4]oxazin-6-yl]-2-amino-5-(3,5-difluorophenyl)pyridin-3-yl}-4-fluoro-1H-1,3-benzodiazole-6-carbonitrile] | 9.00 to 10.00 | b (b = bewteen 15 and 50;) | 5.78 |
| COc1cc(C#N)cc2[nH]c(-c3c(N)ncc(-c4cccc(F)c4)c3N3CC[C@@H]4NCCO[C@H]4C3)nc12 [Compound 3-11, 2-{4-[(4αS, 8αS)-octahydro-1H-pyrido[3,4-b][1,4]oxazin-6-yl]-2-amino-5-(3-fluorophenyl)pyridin-3-yl}-4-methoxy-1H-1,3-benzodiazole-6-carbonitrile] | 9.00 to 10.00 | a (a = above 50,) | >11.6 |
